Holding throughout (assay): Bactericidal effect on N. gonorrhoeae strains
Holding throughout (format): cell-based

The test system of one test is N. gonorrhoeae L 1001. Conditions: Neisseria gonorrhoeae, L1001, clinical isolate.
A further test relates to N. gonorrhoeae L 1004. To be noted: Neisseria gonorrhoeae, L1004, clinical isolate.
Test [1] has as its system N. gonorrhoeae L 1007 (CTC 6820). Conditions: Neisseria gonorrhoeae.
A further test relates to N. gonorrhoeae L 1596. To be noted: Neisseria gonorrhoeae, L1596, clinical isolate, spectinomycin-resistant.
In another test the test system is N. gonorrhoeae L 1601. To be noted: Neisseria gonorrhoeae, L1601, clinical isolate, penicillin-resistant.
For another test, the system named is N. gonorrhoeae L 1605. To be noted: Neisseria gonorrhoeae, L1605, clinical isolate, penicillin-resistant.
The mark [2] stands for this setting: 24 h, 99.9% of initial inoculum killed.

The structures appear in SMILES notation. Converted amounts (≈) assume the structure as drawn.

Usually MBC stands for the lowest tested concentration that kills the bacteria rather than only halting them. One may read the MIC as the least concentration at which growth counts as inhibited. A higher MIC goes with a less susceptible organism. `CN[C@@H]1[C@H](O)[C@H](NC)[C@H]2O[C@@]3(O)C(=O)C[C@@H](C)O[C@H]3O[C@@H]2[C@H]1O` [Spectinomycin]: the minimal bactericidal concentration (MBC) against N. gonorrhoeae L 1001 (setting [2]) was 32 µg/mL (≈ 96.3 µM); in the test with N. gonorrhoeae L 1004 (setting [2]) it was 32 µg/mL (≈ 96.3 µM); in test [1] (setting [2]), 16 µg/mL (≈ 48.1 µM); against N. gonorrhoeae L 1596 (setting [2]) it was > 128 µg/mL; against N. gonorrhoeae L 1601 (setting [2]), 16 µg/mL (≈ 48.1 µM); against N. gonorrhoeae L 1605 (setting [2]), 32 µg/mL (≈ 96.3 µM). Further, the MIC is 16 µg/mL (≈ 48.1 µM) against N. gonorrhoeae L 1001 (48 h); 16 µg/mL (≈ 48.1 µM) in the test with N. gonorrhoeae L 1004 (48 h); 16 µg/mL (≈ 48.1 µM) in test [1] (48 h); > 128 µg/mL in the test with N. gonorrhoeae L 1596 (48 h); 16 µg/mL (≈ 48.1 µM) against N. gonorrhoeae L 1601 (48 h); 32 µg/mL (≈ 96.3 µM) in the test on N. gonorrhoeae L 1605 (48 h).

Source of the values: patent publication US4935238A, “Antibiotic A 40926 complex and its pure factors PA, PB, A, B and B0” (Gruppo Lepetit, S.p.A., priority 1984, dated 1990).
